Where a name gives a salt, the structure may show the parent alone.

For the assay, the system named is healthy beagle dogs. Nature of the assay: Subchronic action on blood cholesterol values of dogs (feeding experiment). The following applies: 8 mg/kg p.o. daily, after 2-week administration, cholestyramine (4 g/100 g of feed) in feed, compared with serum cholesterol before the administration period. The class given is in vivo, dog. Here is the method: The subchronic action of the disubstituted pyridines on blood cholesterol values of dogs was tested in feeding experiments extending over several weeks. For this, the substance to be investigated was given p.o. once daily in a capsule to healthy beagle dogs together with the feed over a time period of several weeks. In addition, during the entire experimental period, i.e. before, during and after the administration period, the substance cholestyramine (4 g/100 g of feed) to be investigated was mixed with the feed as the […] sequestrant. Twice weekly, venous blood was taken from the dogs and the serum cholesterol was determined enzymatically. The serum cholesterol values during the administration period were compared with the serum cholesterol values before the administration period (controls).

Consider `CC(C)c1nc(C(C)C)c(/C=C/C(O)CC(O)CC(=O)O)c(-c2ccc(F)cc2)c1/C=C/C(O)CC(O)CC(=O)O` (stereo not shown) [Na salt of Example 8, 2,6-diisopropyl 4-(4-fluorophenyl)-3,5-di-(sodiumerythro-(E)-3,5-dihydroxy-hept-6-enoat-7-yl)-pyridine], for which the “Lowering of the serum cholesterol” value is reported as “about 22.4%”.
